These results are taken from patent US9284325B2, “Spectinamides as anti-tuberculosis agents” (UNIVERSITY OF TENNESSEE RESEARCH FOUNDATION, priority 2009, dated 2016).

One assay concerns M. tuberculosis H37Rv. The assay is described as follows: MIC determination by microbroth dilution, anti-tuberculosis activity. The assay is classed as cell-based, Mycobacterium tuberculosis. The conditions noted are these: Mycobacterium tuberculosis, H37RV, 168 h; read-out: MIC. (Dilution methods test growth across graded concentrations, often in twofold steps.)
Another assay concerns E. faecalis ATCC 33186. The assay is described as follows: MIC determination by microbroth dilution. Format: cell-based, Enterococcus faecalis. As to conditions: Enterococcus faecalis, ATCC33186.
In another assay the test system is P. aeruginosa PAO1. Nature of the assay: MIC determination by microbroth dilution. Format: cell-based, Pseudomonas aeruginosa. The conditions noted are these: Pseudomonas aeruginosa.
Assay [1] deals with Strep. pyogenes ATCC 700294. The assay is described as follows: MIC determination by microbroth dilution. The assay is classed as cell-based, Streptococcus pyogenes. The conditions noted are these: Streptococcus pyogenes, ATCC700294, read-out: MIC S. pyogenes.
Assay [2] concerns Strep. pneumoniae DAW27 or strain R6. Nature of the assay: MIC determination by microbroth dilution. The assay is classed as cell-based, Streptococcus pneumoniae. As to conditions: Streptococcus pneumoniae; Strep. pneumoniae DAW27 or strain R6 (for 1443-1544); read-out: MIC S. pneumoniae.
Assay [3] deals with Burkholderia cepacia ATCC 25416. The assay is described as follows: MIC determination by microbroth dilution. The assay is classed as cell-based. As to conditions: ATCC25416, read-out: MIC B. cepcia.
Assay [4] relates to Proteus vulgaris ATCC 33420. Nature of the assay: MIC determination by microbroth dilution. The assay is classed as cell-based. The conditions noted are these: ATCC33420.
The test system of assay [5] is Acinetobacter baumannii ATCC 19606. The assay is described as follows: MIC determination by microbroth dilution. The assay is classed as cell-based. As to conditions: ATCC19606.
Assay [6] has as its system Klebsiella pneumoniae ATCC 33495. Nature of the assay: MIC determination by microbroth dilution. The assay is classed as cell-based. As to conditions: ATCC33495.
For assay [7], the system named is Strenotrophomonas maltophilia ATCC 13637. Nature of the assay: MIC determination by microbroth dilution. Format: cell-based.
A further assay deals with E. coli K12. Nature of the assay: MIC determination by microbroth dilution. The assay is classed as cell-based, Escherichia coli. As to conditions: Escherichia coli, K12.
For assay [8], the system named is S. aureus 8325 or strain ATCC 29213. The assay is described as follows: MIC determination by microbroth dilution. As to conditions: Staphylococcus aureus, ATCC29213; S. aureus 8325 or strain ATCC 29213 (for 1471-1544). Format: cell-based, Staphylococcus aureus.
The test system of another assay is B. anthracis Sterne 34F2. The assay is described as follows: microbe, parasite or virus in culture. Format: cell-based, Bacillus anthracis. The conditions noted are these: Bacillus anthracis, STERNE34F2, read-out: MIC B. anthracis 34F2.
Assay [9] relates to Proteus mirabilis ATCC 25933. Nature of the assay: MIC determination by microbroth dilution. The assay is classed as cell-based. The conditions noted are these: ATCC25933.
For another assay, the system named is E. coli K12 ΔtolC. Nature of the assay: microbe, parasite or virus in culture. The assay is classed as cell-based. The conditions noted are these: Escherichia coli, read-out: MIC E. coli K12 ΔtolC.

Structures are written as SMILES. In brackets after ≈: the same amount, converted by molar mass. Where a name gives a salt, the structure may show the parent alone.

`CN[C@@H]1[C@H](O)[C@H](NC)C2O[C@]3(O)C(OC2[C@H]1O)O[C@H](C)C[C@H]3NC(=O)Cc1ccc(-c2cccc(OC)c2)cn1` (stereo partly drawn) [Compound 1543, 3′-Dihydro-3′-deoxy-4(R)-(5-(3-methoxyphenyl)pyridin-2-yl)acetyl-amino spectinomycin tribromide]: the MIC in the assay with M. tuberculosis H37Rv is 6.25 µg/mL; against E. faecalis ATCC 33186, 12.5 µg/mL; in the assay with P. aeruginosa PAO1, over 200 µg/mL; in assay [1], 6.25 µg/mL; in assay [2] it was 3.1 µg/mL; in assay [3], over 200 µg/mL. The MIC in assay [4] was over 200 µg/mL; in assay [5], over 200 µg/mL; in assay [6], over 200 µg/mL; in assay [7], 200 µg/mL; in the assay with E. coli K12 it was over 200 µg/mL; in assay [8] it was 100 µg/mL. Further, the MIC in the assay with B. anthracis Sterne 34F2 was over 200 µg/mL; in [9] it was over 200 µg/mL; in the assay on E. coli K12 ΔtolC it was under 6.25 µg/mL.
In the case of `CN[C@@H]1[C@H](O)[C@H](NC)C2O[C@]3(O)C(OC2[C@H]1O)O[C@H](C)C[C@H]3NCC1CC1` (stereo partly drawn) [Compound 1419, 3′-Dihydro-3′-deoxy-4(R)-cyclopropylmethylamino spectinomycin Trihydrochloride], the MIC in the assay on M. tuberculosis H37Rv was 50 µg/mL; with E. faecalis ATCC 33186, 200 µg/mL; against P. aeruginosa PAO1, over 200 µg/mL; in assay [1], 50 µg/mL; in [2], 100 µg/mL; in assay [3], over 200 µg/mL. The MIC is over 200 µg/mL in assay [4]; over 200 µg/mL in assay [5]; over 200 µg/mL in [6]; over 200 µg/mL in assay [7]; 100 µg/mL against E. coli K12; 100 µg/mL in [8]. The values for the MIC (in the assay with B. anthracis Sterne 34F2; in assay [9]; in the assay with E. coli K12 ΔtolC) were 50 µg/mL, over 200 µg/mL and 25 µg/mL, respectively.
Take `CN[C@@H]1[C@H](O)[C@H](NC)C2O[C@]3(O)C(OC2[C@H]1O)O[C@H](C)C[C@H]3NC(=O)Cc1ccc(-c2ccc(F)cc2)cn1` (stereo partly drawn) [Compound 1542, 3′-Dihydro-3′-deoxy-4(R)-(5-(4-fluorophenyl)pyridin-2-yl)acetylamino spectinomycin tribromide]: the MIC in the assay with M. tuberculosis H37Rv is 3.12 µg/mL; in the assay on E. faecalis ATCC 33186, 25 µg/mL; in the assay with P. aeruginosa PAO1 it was over 200 µg/mL; in [1], 6.25 µg/mL; in [2], 3.1 µg/mL; in assay [3] it was over 200 µg/mL. The MIC in [4] is over 200 µg/mL; in assay [5], over 200 µg/mL; in assay [6], over 200 µg/mL; in assay [7] it was over 200 µg/mL; in the assay with E. coli K12, over 200 µg/mL; in assay [8], 100 µg/mL. In addition, the MIC in the assay with B. anthracis Sterne 34F2 is over 200 µg/mL; in assay [9], over 200 µg/mL; with E. coli K12 ΔtolC, 12.5 µg/mL.
As for `CN[C@@H]1[C@H](O)[C@H](NC)C2O[C@]3(O)C(OC2[C@H]1O)O[C@H](C)C[C@H]3NC(=O)Cc1cccc(OC)c1` (stereo partly drawn) [Compound 1400, 3′-Dihydro-3′-deoxy-4(R)-(3-methoxy-phenyl)acetylamino spectinomycin Dihydrochloride], the MIC in the assay with M. tuberculosis H37Rv was 12.5 µg/mL; in the assay on E. faecalis ATCC 33186 it was 100 µg/mL; in the assay with P. aeruginosa PAO1, 100 µg/mL; in assay [1] it was over 200 µg/mL; in assay [2] it was 100 µg/mL; in [3] it was over 200 µg/mL. The MIC (in assay [4]; in assay [5]; in assay [6]; in assay [7]; in the assay on E. coli K12; in assay [8]) was over 200 µg/mL throughout. The MIC in the assay with B. anthracis Sterne 34F2 was 200 µg/mL; in assay [9], over 200 µg/mL; with E. coli K12 ΔtolC, over 200 µg/mL.
As for `CN[C@@H]1[C@H](O)[C@H](NC)C2O[C@]3(O)C(OC2[C@H]1O)O[C@H](C)C[C@H]3NC(=O)c1ccccc1F` (stereo partly drawn) [Compound 1492, 3′-Dihydro-3′-deoxy-4(R)-(2-fluorobenzene-1-yl)carboxylicamino spectinomycin dihydrochloride], the MIC in the assay with M. tuberculosis H37Rv was over 200 µg/mL; in the assay on E. faecalis ATCC 33186, over 200 µg/mL; against P. aeruginosa PAO1 it was over 200 µg/mL; in assay [1] it was 50 µg/mL; in assay [2] it was 100 µg/mL; in assay [3], over 200 µg/mL. Besides, the MIC (in assay [4]; in [5]; in [6]; in assay [7]; with E. coli K12; in [8]) was over 200 µg/mL throughout. Further, the MIC in the assay with B. anthracis Sterne 34F2 was over 200 µg/mL; in [9], over 200 µg/mL; with E. coli K12 ΔtolC it was 200 µg/mL.
Turning to `CN[C@@H]1[C@H](O)[C@H](NC)C2O[C@]3(O)C(OC2[C@H]1O)O[C@H](C)C[C@H]3NC(=O)CN` (stereo partly drawn) [Compound 1470, 3′-Dihydro-3′-deoxy-4(R)-(2-amino)acetylamino spectinomycin Trihydrochloride], the MIC in the assay with M. tuberculosis H37Rv is 200 µg/mL; with E. faecalis ATCC 33186 it was over 200 µg/mL; with P. aeruginosa PAO1, over 200 µg/mL; in assay [1], over 200 µg/mL; in [2] it was over 200 µg/mL; in assay [3] it was over 200 µg/mL. For the same compound, the MIC (in assay [4]; in [5]; in [6]; in assay [7]; against E. coli K12; in assay [8]) was over 200 µg/mL throughout. The MIC (in the assay on B. anthracis Sterne 34F2; in [9]; in the assay on E. coli K12 ΔtolC) was over 200 µg/mL throughout.
As to `CN[C@@H]1[C@H](O)[C@H](NC)C2O[C@]3(O)C(OC2[C@H]1O)O[C@H](C)C[C@H]3NC(=O)[C@H](Cc1ccccc1)NC(=O)CN` (stereo partly drawn) [Compound 1502, 3′-Dihydro-3′-deoxy-4(R)-[2(S)-(2-aminoacetamido)-3-phenyl]-propanoylamino spectinomycin Trihydrochloride], the MIC (with M. tuberculosis H37Rv; with E. faecalis ATCC 33186; in the assay with P. aeruginosa PAO1; in [1]; in [2]; in assay [3]) was over 200 µg/mL each time. Besides, the MIC (in [4]; in [5]; in [6]; in assay [7]; against E. coli K12; in assay [8]) was over 200 µg/mL each time. The MIC (with B. anthracis Sterne 34F2; in assay [9]; with E. coli K12 ΔtolC) was over 200 µg/mL in each case.
As to `CN[C@@H]1[C@H](O)[C@H](NC)C2O[C@]3(O)C(OC2[C@H]1O)O[C@H](C)C[C@H]3NC(=O)Cc1cn(Cc2ccccc2)nn1` (stereo partly drawn) [Compound 1537, 3′-Dihydro-3′-deoxy-4(R)-2-(1-benzyl-1H-1,2,3-triazol-4-yl)acetyl-amino spectinomycin tetrabromide], the MIC is 50 µg/mL (≈ 93.9 µM) in the assay with M. tuberculosis H37Rv; 25 µg/mL (≈ 46.9 µM) against E. faecalis ATCC 33186; over 200 µg/mL against P. aeruginosa PAO1; 3.1 µg/mL (≈ 5.82 µM) in assay [1]; 3.1 µg/mL (≈ 5.82 µM) in [2]; over 200 µg/mL in assay [3]. The MIC in [4] is over 200 µg/mL; in assay [5], over 200 µg/mL; in assay [6] it was over 200 µg/mL; in assay [7], over 200 µg/mL; with E. coli K12, over 200 µg/mL; in [8], 100 µg/mL (≈ 188 µM). For the same compound, the values for the MIC (in the assay with B. anthracis Sterne 34F2; in assay [9]; with E. coli K12 ΔtolC) were over 200 µg/mL, over 200 µg/mL and 12.5 µg/mL (≈ 23.5 µM), respectively.
In the case of `CN[C@@H]1[C@H](O)[C@H](NC)C2O[C@]3(O)C(OC2[C@H]1O)O[C@H](C)C[C@H]3NC(=O)Cc1ccc(Br)cn1` (stereo partly drawn) [Compound 1516, 3′-Dihydro-3′-deoxy-4(R)-(5-bromopyridin-2-yl)acetylamino spectinomycin trihydrobromide], the MIC was 1.56 µg/mL with M. tuberculosis H37Rv; 100 µg/mL against E. faecalis ATCC 33186; over 200 µg/mL with P. aeruginosa PAO1; 6.25 µg/mL in assay [1]; 6.25 µg/mL in [2]; over 200 µg/mL in assay [3]. Moreover, the MIC was over 200 µg/mL in assay [4]; over 200 µg/mL in assay [5]; over 200 µg/mL in assay [6]; over 200 µg/mL in [7]; over 200 µg/mL against E. coli K12; 50 µg/mL in assay [8]. Also, the results for the MIC (in the assay on B. anthracis Sterne 34F2; in assay [9]; in the assay on E. coli K12 ΔtolC) were over 200 µg/mL, over 200 µg/mL and 12.5 µg/mL, respectively.
In the case of `CN[C@@H]1[C@H](O)[C@H](NC)C2O[C@]3(O)C(OC2[C@H]1O)O[C@H](C)C[C@H]3NC(=O)CCN` (stereo partly drawn) [Compound 1469, 3′-Dihydro-3′-deoxy-4(R)-(3-amino)propanoylamino spectinomycin Trihydrochloride], the MIC is 200 µg/mL in the assay on M. tuberculosis H37Rv; 50 µg/mL with E. faecalis ATCC 33186; over 200 µg/mL with P. aeruginosa PAO1; 100 µg/mL in assay [1]; 50 µg/mL in assay [2]; over 200 µg/mL in assay [3]. Besides, the MIC in [4] is over 200 µg/mL; in assay [5], over 200 µg/mL; in assay [6], over 200 µg/mL; in assay [7], 25 µg/mL; against E. coli K12, over 200 µg/mL; in assay [8], over 200 µg/mL. The values for the MIC (with B. anthracis Sterne 34F2; in [9]; with E. coli K12 ΔtolC) were 50 µg/mL, over 200 µg/mL and 100 µg/mL, respectively.
